The NIST ThermoML archive (doi:10.1021/je800110r)

Conditions: 283.15 K, Liquid, Vibrating tube method

CCCCCCCCCC [decane]
Conditions | mass density [kg/m3]
18830 kPa | 750.4
18862 kPa | 750.3
18886 kPa | 750.4
18919 kPa | 750.4
18953 kPa | 750.3
18975 kPa | 750.3
19001 kPa | 750.4
19028 kPa | 750.5
19063 kPa | 750.5
19088 kPa | 750.4
19116 kPa | 750.6
19142 kPa | 750.5
19169 kPa | 750.6
19195 kPa | 750.6
19222 kPa | 750.6
19245 kPa | 750.6
19296 kPa | 750.6
19437 kPa | 750.6
19472 kPa | 750.7
19500 kPa | 750.8
19524 kPa | 750.7
19561 kPa | 750.8
19589 kPa | 750.8
19627 kPa | 750.9
19660 kPa | 750.9
19683 kPa | 750.9
19715 kPa | 750.9
19742 kPa | 750.9
19762 kPa | 750.9
19786 kPa | 750.9
19807 kPa | 751
19842 kPa | 751
19870 kPa | 751
19891 kPa | 751
19925 kPa | 751
19953 kPa | 751
19975 kPa | 751
19996 kPa | 751
20017 kPa | 751
20039 kPa | 751.1
20064 kPa | 751.2
20082 kPa | 751.2
20101 kPa | 751.1
20121 kPa | 751
20149 kPa | 751.1
20174 kPa | 751.2
20196 kPa | 751.3
20219 kPa | 751.1
20248 kPa | 751.3
20268 kPa | 751.2
20291 kPa | 751.3
20310 kPa | 751.2
20345 kPa | 751.3
20368 kPa | 751.2
20387 kPa | 751.4
20410 kPa | 751.3
20429 kPa | 751.3
20462 kPa | 751.3
20488 kPa | 751.4
20508 kPa | 751.3
20558 kPa | 751.3
20627 kPa | 751.4
20648 kPa | 751.6
20677 kPa | 751.4
20697 kPa | 751.6
20731 kPa | 751.6
20762 kPa | 751.6
20782 kPa | 751.6
20813 kPa | 751.6
20841 kPa | 751.6
20865 kPa | 751.6
20894 kPa | 751.6
20922 kPa | 751.6
20942 kPa | 751.6
20966 kPa | 751.5
20994 kPa | 751.7
21015 kPa | 751.7
21043 kPa | 751.8
21074 kPa | 751.8
21095 kPa | 751.8
21127 kPa | 751.8
21151 kPa | 751.8
21173 kPa | 751.8
21194 kPa | 751.8
21211 kPa | 751.9
21240 kPa | 752
21271 kPa | 751.9
21296 kPa | 751.8
21321 kPa | 751.9
21353 kPa | 751.9
21370 kPa | 751.9
21403 kPa | 751.9
21752 kPa | 752.1
21805 kPa | 752.2
21889 kPa | 752.2
21915 kPa | 752.2
21938 kPa | 752.3
21972 kPa | 752.3
22007 kPa | 752.3
22031 kPa | 752.3
22058 kPa | 752.3
22089 kPa | 752.3
22113 kPa | 752.4
22147 kPa | 752.4
22178 kPa | 752.3
22201 kPa | 752.4
22236 kPa | 752.4
22272 kPa | 752.5
22295 kPa | 752.5
22335 kPa | 752.4
22359 kPa | 752.5
22386 kPa | 752.6
22411 kPa | 752.6
22446 kPa | 752.5
22479 kPa | 752.6
22503 kPa | 752.5
22527 kPa | 752.6
22564 kPa | 752.6
22597 kPa | 752.6
22622 kPa | 752.7
22663 kPa | 752.6
22697 kPa | 752.7
22722 kPa | 752.7
22759 kPa | 752.7
22793 kPa | 752.8
22818 kPa | 752.9
22847 kPa | 752.9
22881 kPa | 752.9
22919 kPa | 752.9
23017 kPa | 752.9
23052 kPa | 752.9
23107 kPa | 753
23142 kPa | 753
23169 kPa | 752.9
23192 kPa | 753.1
23212 kPa | 753.1
23237 kPa | 753.1
23257 kPa | 753.2
23291 kPa | 753.1
23311 kPa | 753.2
23338 kPa | 753.1
23363 kPa | 753.2
23386 kPa | 753.2
23410 kPa | 753.2
23441 kPa | 753.2
23462 kPa | 753.2
23489 kPa | 753.3
23513 kPa | 753.1
23530 kPa | 753.2
23558 kPa | 753.3
23590 kPa | 753.3
23611 kPa | 753.3
23638 kPa | 753.3
23667 kPa | 753.4
23689 kPa | 753.3
23714 kPa | 753.3
23743 kPa | 753.4
23766 kPa | 753.4
23786 kPa | 753.5
23812 kPa | 753.4
23835 kPa | 753.5
23855 kPa | 753.4
23875 kPa | 753.4
23904 kPa | 753.5
23928 kPa | 753.5
23957 kPa | 753.5
23977 kPa | 753.6
24007 kPa | 753.5
24024 kPa | 753.6
24061 kPa | 753.7
24135 kPa | 753.6
24155 kPa | 753.6
24179 kPa | 753.7
24242 kPa | 753.6
24265 kPa | 753.7
24286 kPa | 753.7
24309 kPa | 753.7
24330 kPa | 753.8
24362 kPa | 753.7
24389 kPa | 753.7
24410 kPa | 753.7
24434 kPa | 753.8
24452 kPa | 753.9
24490 kPa | 753.9
24511 kPa | 753.7
24533 kPa | 753.8
24564 kPa | 753.9
24596 kPa | 753.8
24618 kPa | 753.9
24642 kPa | 753.8
24660 kPa | 753.9
24682 kPa | 753.9
24710 kPa | 754
24739 kPa | 753.9
24764 kPa | 753.9
24796 kPa | 754
24819 kPa | 754
24845 kPa | 754.1
24871 kPa | 754.1
24904 kPa | 754.2
24924 kPa | 754.1
24954 kPa | 754.2
24981 kPa | 754.1
25004 kPa | 754.2
25025 kPa | 754.1
25048 kPa | 754
25068 kPa | 754.2
25099 kPa | 754.3
25121 kPa | 754.2
25141 kPa | 754.3
25168 kPa | 754.2
25199 kPa | 754.3
25220 kPa | 754.3
25248 kPa | 754.2
25268 kPa | 754.3
25286 kPa | 754.3
25313 kPa | 754.2
25335 kPa | 754.3
25366 kPa | 754.4
25398 kPa | 754.5
25416 kPa | 754.3
25477 kPa | 754.4
25498 kPa | 754.4
25523 kPa | 754.5
25544 kPa | 754.5
25566 kPa | 754.5
25591 kPa | 754.5
25620 kPa | 754.5
25645 kPa | 754.5
25669 kPa | 754.5
25695 kPa | 754.6
25712 kPa | 754.5
25739 kPa | 754.7
25768 kPa | 754.7
25788 kPa | 754.7
25818 kPa | 754.6
25845 kPa | 754.4
25865 kPa | 754.6
25888 kPa | 754.7
25908 kPa | 754.6
25939 kPa | 754.7
25967 kPa | 754.7
25992 kPa | 754.7
26022 kPa | 754.7
26046 kPa | 754.8
26065 kPa | 754.7
26099 kPa | 754.8
26119 kPa | 754.9
26136 kPa | 754.7
26166 kPa | 754.8
26197 kPa | 754.7
26220 kPa | 754.9
26245 kPa | 754.8
26273 kPa | 754.8
26300 kPa | 754.8
26324 kPa | 754.9
26341 kPa | 755
26368 kPa | 754.9
26389 kPa | 755
26421 kPa | 755
26445 kPa | 755
26466 kPa | 755
26490 kPa | 755
26510 kPa | 755.1
26538 kPa | 755.1
26567 kPa | 755.1
26591 kPa | 755
26624 kPa | 755.2
26652 kPa | 755.2
26677 kPa | 755.2
26694 kPa | 755.2
26726 kPa | 755.2
26754 kPa | 755.3
